Experimental data: patent US9376387B2 (priority 2013, dated 2016)

How the values were obtained:
[1] = target: EqBuChE (Equus caballus, UniProt P81908); assay: biochemical; conditions: EqBuChE IC50
[2] = target: T1, hAChE (human erythrocyte membranes as a AChE source) (Homo sapiens, UniProt P22303); assay: acetylcholinesterase (AChE) activity, modified Ellman method; format: biochemical
T1 construct: human erythrocyte membranes as a AChE source; from tissue; host or cells: human erythrocyte membranes
T1 sequence (P22303 32-617 isoform P22303-2 limits assumed): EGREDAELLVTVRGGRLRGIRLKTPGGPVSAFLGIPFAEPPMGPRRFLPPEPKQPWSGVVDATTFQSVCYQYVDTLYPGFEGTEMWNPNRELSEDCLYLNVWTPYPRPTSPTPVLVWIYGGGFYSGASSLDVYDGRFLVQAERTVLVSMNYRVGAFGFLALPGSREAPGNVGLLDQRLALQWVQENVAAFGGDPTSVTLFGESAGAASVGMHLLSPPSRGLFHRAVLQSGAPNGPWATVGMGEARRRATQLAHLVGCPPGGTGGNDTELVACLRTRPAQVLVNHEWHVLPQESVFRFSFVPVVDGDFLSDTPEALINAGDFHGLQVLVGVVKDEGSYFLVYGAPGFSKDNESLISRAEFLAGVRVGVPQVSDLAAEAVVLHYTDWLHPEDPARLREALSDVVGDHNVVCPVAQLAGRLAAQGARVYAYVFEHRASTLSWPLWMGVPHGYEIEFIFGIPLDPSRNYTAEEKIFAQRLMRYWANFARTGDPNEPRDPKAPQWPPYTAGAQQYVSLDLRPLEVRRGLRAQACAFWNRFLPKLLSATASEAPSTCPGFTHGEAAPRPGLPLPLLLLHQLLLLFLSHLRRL

[3] = IC50, enzyme not named in the examples, AChE per the Table
[4] = hAChE IC50, modified Ellman method, acetylthiocholine iodide substrate, pH=7.4

Chain of EqBuChE (P81908 whole entry): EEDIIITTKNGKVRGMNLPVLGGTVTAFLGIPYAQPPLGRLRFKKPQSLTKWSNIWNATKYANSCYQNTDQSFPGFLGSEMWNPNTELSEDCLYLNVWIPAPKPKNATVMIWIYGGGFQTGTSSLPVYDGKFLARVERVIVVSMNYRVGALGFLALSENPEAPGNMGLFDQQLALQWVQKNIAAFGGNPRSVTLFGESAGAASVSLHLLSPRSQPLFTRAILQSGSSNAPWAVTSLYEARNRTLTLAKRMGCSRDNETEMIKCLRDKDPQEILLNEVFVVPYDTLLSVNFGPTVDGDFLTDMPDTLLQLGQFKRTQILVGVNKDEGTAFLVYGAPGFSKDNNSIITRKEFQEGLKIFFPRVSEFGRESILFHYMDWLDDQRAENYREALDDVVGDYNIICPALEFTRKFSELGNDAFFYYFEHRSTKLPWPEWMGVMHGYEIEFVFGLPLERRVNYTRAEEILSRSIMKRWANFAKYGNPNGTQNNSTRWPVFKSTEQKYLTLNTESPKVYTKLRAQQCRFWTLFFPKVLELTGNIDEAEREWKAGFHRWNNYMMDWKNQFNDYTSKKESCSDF

| Compound | IC50 [1] | IC50 [2, 3] | IC50 [2, 4] |
| --- | --- | --- | --- |
| COc1ccc2c(c1)CCC(CC1C=CN(Cc3ccccc3C)C=C1C(C)=O)C2=O (racemic) [Compound 160, 2-[[3-acetyl-1-(o-tolylmethyl)-4H-pyridin-4-yl]methyl]-6-methoxy-tetralin-1-one] | 8.27 µM | – | – |
| COc1ccc2c(c1)CCC(CC1C=CN(Cc3ccccc3C)C=C1C(C)=O)C2=O (single isomer, unassigned) [Compound 160-B, 2-[[3-acetyl-1-(o-tolylmethyl)-4H-pyridin-4-yl]methyl]-6-methoxy-tetralin-1-one] | 5.65 µM | – | – |
| COc1ccc2c(c1)CCC(CC1C=CN(Cc3ccccc3C)C=C1C(C)=O)C2=O (single isomer, unassigned) [Compound 160-C, 2-[[3-acetyl-1-(o-tolylmethyl)-4H-pyridin-4-yl]methyl]-6-methoxy-tetralin-1-one] | 4.7 µM | – | – |
| COc1cc2c(cc1OC)C(=O)C(Cc1cc[n+](Cc3ccccc3)cc1)C2 (stereo not shown) [Compound 23, 1-Benzyl-4-((5,6-dimethoxy-1-oxo-2,3-dihydro-1H-inden-2-yl)methyl)pyridinium iodide] | – | 0.0368 µM | – |
| COc1cc2c(cc1OC)C(=O)C(Cc1cc[n+](Cc3ccccc3)cc1C#N)C2 (stereo not shown) [Compound 26, 1-Benzyl-3-cyano-4-(5,6-dimethoxy-1-oxo-2,3-dihydro-1H-inden-2-yl)methylpyridinium iodide] | – | 0.0112 µM | 0.0113 µM |
| COc1cc2c(cc1OC)C(=O)C(CC1C=CN(Cc3ccccc3)C=C1C#N)C2 (stereo not shown) [Compound 27, 1-Benzyl-4-(5,6-dimethoxy-1-oxo-2,3-dihydro-1H-inden-2-yl)methyl-1,4-dihydropyridine-3-carbonitrile] | – | 0.175 µM | – |
| COc1ccc(C(=O)N(CCC2C=CN(Cc3ccccc3)C=C2C(C)=O)c2ccccc2)cc1OC (stereo not shown) [Compound 32, N-[2-(3-acetyl-1-benzyl-4H-pyridin-4-yl)ethyl]-3,4-dimethoxy-N-phenyl-benzamide] | 6.21 µM | – | – |
| COc1cc2c(cc1OC)C(=O)C(Cc1cc[n+](Cc3ccccc3)cc1C(C)=O)C2 (stereo not shown) [Compound 33, 1-Benzyl-3-actyl-4-(5,6-dimethoxy-1-oxo-2,3-dihydro-1H-inden-2-yl)methyl pyridinium bromide] | – | 0.018 µM | – |
| COc1cc2c(cc1OC)C(=O)C(CC1C=CN(Cc3ccccc3)C=C1C(C)=O)C2 (stereo not shown) [Compound 34, 1-Benzyl-4-(5,6-dimethoxy-1-oxo-2,3-dihydro-1H-inden-2-yl)methyl-1,4-dihydropyridine-3-acetyl] | – | 0.528 µM | – |
| COc1ccc(C(=O)N(CCCC2C=CN(Cc3ccccc3)C=C2C(C)=O)c2ccccc2)cc1OC (stereo not shown) [Compound 36, N-[3-(3-acetyl-1-benzyl-4H-pyridin-4-yl)propyl]-3,4-dimethoxy-N-phenyl-benzamide] | 4.6 µM | – | – |
| COc1ccc2c(c1)CCC(CC1C=CN(Cc3ccccc3F)C=C1C(C)=O)C2=O (stereo not shown) [Compound 55, 2-[[3-acetyl-1-[(2-fluorophenyl)methyl]-4H-pyridin-4-yl]methyl]-6-methoxy-tetralin-1-one] | 6.01 µM | – | – |
| COc1ccc2c(c1)CCC(CC1C=CN(Cc3ccccc3C)C=C1C(C)=O)C2=O (stereo not shown) [Compound 59, 2-[[3-acetyl-1-(o-tolylmethyl)-4H-pyridin-4-yl]methyl]-6-methoxy-tetralin-1-one] | 8.27 µM | – | – |
| COc1ccc2c(c1)CCC(CC1C=CN(Cc3cccc(C)c3)C=C1C(C)=O)C2=O (stereo not shown) [Compound 61, 2-[[3-acetyl-1-(m-tolylmethyl)-4H-pyridin-4-yl]methyl]-6-methoxy-tetralin-1-one] | 4.02 µM | – | – |
| COc1ccc2c(c1)CCC(CC1C=CN(Cc3ccccc3C(F)(F)F)C=C1C(C)=O)C2=O (stereo not shown) [Compound 67, 2-[[3-acetyl-1-[[2-(trifluoromethyl)phenyl]methyl]-4H-pyridin-4-yl]methyl]-6-methoxy-tetralin-1-one] | 3.05 µM | – | – |
| COc1cc2c(cc1OC)C(=O)C(CC1C=CN(Cc3cccc(Cl)c3)C=C1C(C)=O)C2 (stereo not shown) [Compound 77, 2-[[3-acetyl-1-[(3-chlorophenyl)methyl]-4H-pyridin-4-yl]methyl]-5,6-dimethoxy-indan-1-one] | 13.5 µM | – | 0.543 µM |
| COc1ccc2c(c1)CCC(Cc1cc[n+](Cc3ccccc3)cc1C(C)=O)C2=O (stereo not shown) [Compound 82, 2-[(3-acetyl-1-benzyl-pyridin-1-ium-4-yl)methyl]-6-methoxy-tetralin-1-one chloride] | 0.371 µM | – | 0.076 µM |
| COc1ccc2c(c1)CCC(Cc1cc[n+](Cc3ccccc3)cc1Br)C2=O (stereo not shown) [Compound 117, 2-[(1-benzyl-3-bromo-pyridin-1-ium-4-yl)methyl]-6-methoxy-tetralin-1-one bromide] | 0.447 µM | – | 0.02 µM |
| COc1ccc2c(c1)CCC(Cc1cc[n+](Cc3cccc(C)c3)cc1Br)C2=O (stereo not shown) [Compound 118, 2-[[3-bromo-1-(m-tolylmethyl)pyridin-1-ium-4-yl]methyl]-6-methoxy-tetralin-1-one bromide] | 0.664 µM | – | 0.0165 µM |

| Compound | IC50 [1] | IC50 [2, 3] | IC50 [2, 4] |
| --- | --- | --- | --- |
| COc1ccc2c(c1)CCC(Cc1cc[n+](Cc3ccccc3)cc1C(C)=O)C2=O (stereo not shown) [Compound 119, 2-[(3-acetyl-1-benzyl-pyridin-1-ium-4-yl)methyl]-6-methoxy-tetralin-1-one bromide] | 0.412 µM | – | 0.071 µM |
| COc1ccc2c(c1)CCC(Cc1cc[n+](Cc3cccc(C)c3)cc1C(C)=O)C2=O (stereo not shown) [Compound 120, 2-[[3-acetyl-1-(m-tolylmethyl)pyridin-1-ium-4-yl]methyl]-6-methoxy-tetralin-1-one bromide] | 0.596 µM | – | 0.11 µM |
| COc1ccc2c(c1)CCC(Cc1cc[n+](Cc3ccccc3C)cc1C(C)=O)C2=O (stereo not shown) [Compound 121, 2-[[3-acetyl-1-(o-tolylmethyl)pyridin-1-ium-4-yl]methyl]-6-methoxy-tetralin-1-one bromide] | 0.433 µM | – | 0.01 µM |
| COc1ccc2c(c1)CCC(Cc1cc[n+](Cc3cccc(Cl)c3)cc1C(C)=O)C2=O (stereo not shown) [Compound 122, 2-[[3-acetyl-1-[(3-chlorophenyl)methyl]pyridin-1-ium-4-yl]methyl]-6-methoxy-tetralin-1-one bromide] | 0.496 µM | – | 0.071 µM |
| COc1ccc2c(c1)CCC(Cc1cc[n+](Cc3cccc([N+](=O)[O-])c3)cc1C(C)=O)C2=O (stereo not shown) [Compound 123, 2-[[3-acetyl-1-[(3-nitrophenyl)methyl]pyridin-1-ium-4-yl]methyl]-6-methoxy-tetralin-1-one bromide] | 1.32 µM | – | 0.0786 µM |
| COc1ccc2c(c1)CCC(Cc1cc[n+](Cc3cccc(C(F)(F)F)c3)cc1C(C)=O)C2=O (stereo not shown) [Compound 124, 2-[[3-acetyl-1-[[3-(trifluoromethyl)phenyl]methyl]pyridin-1-ium-4-yl]methyl]-6-methoxy-tetralin-1-one bromide] | 2.17 µM | – | 0.307 µM |
| COc1ccc2c(c1)CCC(Cc1cc[n+](Cc3ccccc3[N+](=O)[O-])cc1C(C)=O)C2=O (stereo not shown) [Compound 125, 2-[[3-acetyl-1-[(2-nitrophenyl)methyl]pyridin-1-ium-4-yl]methyl]-6-methoxy-tetralin-1-one bromide] | 0.592 µM | – | 0.0577 µM |
| COc1ccc2c(c1)CCC(Cc1cc[n+](Cc3ccccc3Cl)cc1C(C)=O)C2=O (stereo not shown) [Compound 126, 2-[[3-acetyl-1-[(2-chlorophenyl)methyl]pyridin-1-ium-4-yl]methyl]-6-methoxy-tetralin-1-one bromide] | 0.256 µM | – | 0.029 µM |
| COc1cc2c(cc1OC)C(=O)C(Cc1cc[n+](Cc3ccccc3)cc1C(C)=O)CC2 (stereo not shown) [Compound 132, 2-[(3-actyl-1-benzyl-pyridin-1-ium-4-yl)methyl]-6,7-dimethoxy-tetralin-1-one bromide] | – | – | 0.0242 µM |
| CC(=O)c1c[n+](Cc2ccccc2C)ccc1CC1Cc2cc(Cl)ccc2C1=O (stereo not shown) [Compound 136, 2-[[3-acetyl-1-(o-tolylmethyl)pyridin-1-ium-4-yl]methyl]-5-chloro-indan-1-one bromide] | – | – | 0.262 µM |
| COc1cc2c(cc1OC)C(=O)/C(=C/c1cc[n+](Cc3ccccc3)cc1C(C)=O)C2 [Compound 149, (2E)-2-[(3-actyl-1-benzyl-pyridin-1-ium-4-yl)methylene]-5,6-dimethoxy-indan-1-one bromide] | – | – | 0.0201 µM |
| COc1ccc2c(c1)CCC(CC1C=CN(Cc3ccc(F)cc3)C=C1C(C)=O)C2=O (stereo not shown) [Compound 155, 2-[[3-acetyl-1-[(4-fluorophenyl)methyl]-4H-pyridin-4-yl]methyl]-6-methoxy-tetralin-1-one] | 2.27 µM | – | – |
| COc1ccc2c(c1)CCC(CC1C=CN(Cc3cccc(F)c3)C=C1C(C)=O)C2=O (stereo not shown) [Compound 156, 2-[[3-acetyl-1-[(3-fluorophenyl)methyl]-4H-pyridin-4-yl]methyl]-6-methoxy-tetralin-1-one] | 4.4 µM | – | – |
| COc1ccc2c(c1)CCC(CC1C=CN(Cc3ccccc3Cl)C=C1C(C)=O)C2=O (stereo not shown) [Compound 157, 2-[[3-acetyl-1-[(2-chlorphenyl)methyl]-4H-pyridin-4-yl]methyl]-6-methoxy-tetralin-1-one] | 5.78 µM | – | – |
| CC(=O)C1=CN(Cc2ccccc2C)C=CC1CC1Cc2cc(C)ccc2C1=O (stereo not shown) [Compound 163, 2-[[3-acetyl-1-(o-tolylmethyl)-4H-pyridin-4-yl]methyl]-5-methyl-indan-1-one] | 4.82 µM | – | – |
| COc1ccc2c(c1)CC(CC1C=CN(Cc3ccccc3C)C=C1C(C)=O)C2=O (stereo not shown) [Compound 164, 2-[[3-acetyl-1-(o-tolylmethyl)-4H-pyridin-4-yl]methyl]-5-methoxy-indan-1-one] | 5.44 µM | – | – |
| CC(=O)C1=CN(Cc2ccccc2C)C=CC1CC1Cc2cc3c(cc2C1=O)OCO3 (stereo not shown) [Compound 165, 6-[[3-acetyl-1-(o-tolylmethyl)-4H-pyridin-4-yl]methyl]-5,6-dihydrocyclopenta[f][1,3]benzodioxol-7-one] | 4.61 µM | – | – |
| COc1cc2c(cc1OC)C(=O)C(CC1C=CN(Cc3ccccc3C)C=C1C(C)=O)C2 (stereo not shown) [Compound 169, 2-[[3-acetyl-1-(o-tolylmethyl)-4H-pyridin-4-yl]methyl]-5,6-dimethoxy-indan-1-one] | – | – | 0.428 µM |
